Results: PubChem BioAssay (NCI)
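Cells were grown in 96-well plates and exposed to each compound for 48 hours at five concentrations; endpoints were interpolated linearly between bracketing concentrations, or set to the highest concentration if not reached. GI50: concentration for 50% inhibition of growth. TGI marks complete inhibition of growth.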

Tests used:
Assay in all cases: DTP human tumour cell line panel, 48 h
[1] = system: OVCAR-4 ovarian
[2] = system: IGROV1 ovarian
[3] = system: U251 CNS
[4] = system: HT29 colon
[5] = system: CAKI-1 renal
[6] = system: SK-OV-3 ovarian
[7] = system: KM12 colon
[8] = system: 786-0 renal
[9] = system: NCI-H23 lung
[10] = system: MCF7 breast
[11] = system: OVCAR-5 ovarian
[12] = system: EKVX NSCLC
[13] = system: M14 melanoma
[14] = system: OVCAR-8 ovarian
[15] = system: HL-60(TB) leukemia
[16] = system: LOX IMVI melanoma
[17] = system: NCI/ADR-RES ovarian
[18] = system: TK-10 renal
[19] = system: OVCAR-3 ovarian
[20] = system: UACC-257 melanoma
[21] = system: COLO 205 colon
[22] = system: CCRF-CEM leukemia
[23] = system: RXF 393 renal
[24] = system: NCI-H460 lung
[25] = system: SF-295 CNS
[26] = system: HS 578T breast
[27] = system: HOP-92 NSCLC
[28] = system: HCT-15 colon
[29] = system: SW-620 colon
[30] = system: ACHN renal
[31] = system: A498 renal
[32] = system: UO-31 renal
[33] = system: DU-145 prostate
[34] = system: SK-MEL-28 melanoma
[35] = system: NCI-H522 lung
[36] = system: SNB-19 CNS
[37] = system: BT-549 breast
[38] = system: SR leukemia
[39] = system: MDA-MB-231 breast
[40] = system: UACC-62 melanoma
[41] = system: SF-268 CNS
[42] = system: MDA-MB-435
[43] = system: HCT-116 colon
[44] = system: SF-539 CNS
[45] = system: K-562 leukemia
[46] = system: SN12C renal
[47] = system: A549 NSCLC
[48] = system: MALME-3M melanoma
[49] = system: RPMI-8226 leukemia
[50] = system: SNB-75 CNS
[51] = system: PC-3 prostate
[52] = system: T-47D breast
[53] = system: SK-MEL-2 melanoma
[54] = system: MOLT-4 leukemia
[55] = system: NCI-H226 lung
[56] = system: SK-MEL-5 melanoma
[57] = system: HOP-62 NSCLC

## NCCNC1=CC(=O)c2nc3ccccc3c3ccnc1c23
[1]
  GI50: 6.47 µM
  TGI: > 47.8 µM
[2]
  GI50: 1580 nM
  TGI: 10.6 µM
[3]
  GI50: 2300 nM
  TGI: 22.7 µM
[4]
  GI50: 22.6 µM
  TGI: > 73.6 µM
[5]
  GI50: 534 nM
  TGI: 2960 nM
[6]
  GI50: 3.69 µM
  TGI: > 65.2 µM
[7]
  GI50: 3.67 µM
  TGI: 38.8 µM
[8]
  GI50: 2450 nM
  TGI: > 29.2 µM
[9]
  GI50: 1240 nM
  TGI: 3.9 µM
[10]
  GI50: 4.55 µM
  TGI: > 50.1 µM
[11]
  GI50: 7.23 µM
  TGI: 40.3 µM
[12]
  GI50: 16.7 µM
  TGI: 53.5 µM
[13]
  GI50: 1480 nM
  TGI: 4.75 µM
[14]
  GI50: 3.83 µM
  TGI: > 100 µM
[15]
  GI50: 3.78 µM
  TGI: > 35.4 µM
[16]
  GI50: 3.46 µM
  TGI: 37.9 µM
[17]
  GI50: 3.13 µM
  TGI: 24.9 µM
[18]
  GI50: 25.9 µM
  TGI: > 100 µM
[19]
  GI50: 2630 nM
  TGI: 11.8 µM
[20]
  GI50: 3.34 µM
  TGI: > 36.7 µM
[21]
  GI50: 8.72 µM
  TGI: 29 µM
[22]
  GI50: 2530 nM
  TGI: > 50.7 µM
[23]
  GI50: 3.97 µM
  TGI: 55.7 µM
[24]
  GI50: 732 nM
  TGI: 5.56 µM
[25]
  GI50: 1730 nM
  TGI: 7.31 µM
[26]
  GI50: 2120 nM
  TGI: > 23.5 µM
[27]
  GI50: 16.4 µM
  TGI: > 43.8 µM
[28]
  GI50: 1400 nM
  TGI: > 49.2 µM
[29]
  GI50: 1750 nM
  TGI: 15.8 µM
[30]
  GI50: 1910 nM
  TGI: 19.6 µM
[31]
  GI50: 9.55 µM
  TGI: > 100 µM
[32]
  GI50: 1510 nM
  TGI: > 20.5 µM
[33]
  GI50: 2110 nM
  TGI: 29.5 µM
[34]
  GI50: 4.27 µM
  TGI: > 80.5 µM
[35]
  GI50: 1530 nM
  TGI: 4.4 µM
[36]
  GI50: 1790 nM
  TGI: 8.33 µM
[37]
  GI50: 4.09 µM
  TGI: 20.6 µM
[38]
  GI50: 374 nM
[39]
  GI50: 9.02 µM
  TGI: 41.9 µM
[40]
  GI50: 1060 nM
  TGI: 3.3 µM
[41]
  GI50: 3.63 µM
  TGI: 42.8 µM
[42]
  GI50: 1420 nM
  TGI: 7.62 µM
[43]
  GI50: 2300 nM
  TGI: 14.8 µM
[44]
  GI50: 1530 nM
  TGI: 4.27 µM
[45]
  GI50: 1400 nM
  TGI: > 24.3 µM
[46]
  GI50: 1970 nM
  TGI: 14.4 µM
[47]
  GI50: 3.26 µM
  TGI: > 100 µM
[48]
  GI50: 2890 nM
  TGI: 13.4 µM
[49]
  GI50: 2010 nM
  TGI: > 40.7 µM
[50]
  GI50: 3.98 µM
  TGI: > 29 µM
[51]
  GI50: 4.09 µM
  TGI: 53.4 µM
[52]
  GI50: 3.75 µM
  TGI: 20.3 µM
[53]
  GI50: 3.05 µM
  TGI: 29.6 µM
[54]
  GI50: 3.39 µM
  TGI: > 36.9 µM
[55]
  GI50: 2080 nM
  TGI: 20.1 µM
[56]
  GI50: 1590 nM
  TGI: 4.19 µM
[57]
  GI50: 362 nM
  TGI: 6.41 µM
